Experimental data from US10196386B2, “Compounds having muscarinic receptor antagonist and beta2 adrenergic receptor agonist activity” (priority 2016, dated 2019).

Tests used:
[1] = biological target: T1, Human β2 adrenoceptor (Homo sapiens, UniProt P07550); assay: β2 adrenoceptor radioligand binding assay
T1 construct: purchased Perkin Elmer
In short: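 Human β2 receptor membranes incubated 1 h at room temperature with 0.3 nM [125I]cyanopindolol and compound in pH 7.4 HEPES buffer (0.5% DMSO); 2 μM s-propranolol defined non-specific binding. Bound label counted after filtration; IC50 from competition curves, converted to Ki via Cheng–Prusoff.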

[2] = biological target: T2, Human M3 receptor (Homo sapiens, UniProt P20309); assay: biochemical; type: binding; settings: read-out: M3 Range
T2 construct: purchased Perkin Elmer
T2 sequence (P20309 whole entry): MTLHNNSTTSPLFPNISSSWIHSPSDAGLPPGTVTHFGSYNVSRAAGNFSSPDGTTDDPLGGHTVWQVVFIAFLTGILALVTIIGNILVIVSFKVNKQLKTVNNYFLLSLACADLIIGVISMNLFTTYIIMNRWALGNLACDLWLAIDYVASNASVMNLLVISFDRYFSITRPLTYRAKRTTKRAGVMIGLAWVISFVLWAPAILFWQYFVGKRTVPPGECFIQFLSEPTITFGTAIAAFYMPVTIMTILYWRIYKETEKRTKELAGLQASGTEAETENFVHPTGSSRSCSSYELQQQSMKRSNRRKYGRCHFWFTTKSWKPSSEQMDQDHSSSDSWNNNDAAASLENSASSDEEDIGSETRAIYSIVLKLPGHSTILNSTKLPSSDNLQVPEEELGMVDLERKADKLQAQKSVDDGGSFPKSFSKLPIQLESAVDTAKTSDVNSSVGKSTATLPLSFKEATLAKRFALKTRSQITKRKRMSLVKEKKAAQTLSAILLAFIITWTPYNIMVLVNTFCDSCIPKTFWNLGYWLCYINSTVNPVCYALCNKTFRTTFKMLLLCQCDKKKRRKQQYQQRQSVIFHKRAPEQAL

T1 sequence (P07550 whole entry): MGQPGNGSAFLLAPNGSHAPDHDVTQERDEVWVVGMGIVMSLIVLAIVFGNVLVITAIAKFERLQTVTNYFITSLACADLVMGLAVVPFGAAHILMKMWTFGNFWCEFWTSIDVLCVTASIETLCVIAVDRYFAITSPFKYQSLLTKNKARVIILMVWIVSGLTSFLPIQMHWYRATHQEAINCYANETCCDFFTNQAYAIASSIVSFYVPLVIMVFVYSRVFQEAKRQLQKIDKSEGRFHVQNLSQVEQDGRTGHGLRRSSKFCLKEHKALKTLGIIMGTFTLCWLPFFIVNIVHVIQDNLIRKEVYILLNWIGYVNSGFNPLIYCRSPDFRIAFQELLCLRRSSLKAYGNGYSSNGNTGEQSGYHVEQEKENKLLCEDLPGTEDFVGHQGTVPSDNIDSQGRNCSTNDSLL

COc1cc(C(=O)NCc2ccnc(-c3cccc([C@](O)(C(=O)OCC4CCN(Cc5ccccc5)CC4)c4ccccc4)c3)n2)ccc1CNC[C@H](O)c1ccc(O)c2[nH]c(=O)ccc12 [Compound 4A, (1-Benzylpiperidin-4-yl)methyl (S)-2-hydroxy-2-(3-(4-((4-((((R)-2-hydroxy-2-(8-hydroxy-2-oxo-1,2-dihydroquinolin-5-yl)ethyl)amino)methyl)-3-methoxybenzamido)methyl)pyrimidin-2-yl)phenyl)-2-phenylacetate]
IC50 [1]: < 0.3 nM
IC50 [2]: 0.3 to 3 nM

O=C(NCc1cnc(-c2cccc([C@](O)(C(=O)OCC3CCN(Cc4ccccc4)CC3)c3ccccc3)c2)cn1)c1ccc(CNC[C@H](O)c2ccc(O)c3[nH]c(=O)ccc23)cc1 [Compound 4B, (1-Benzylpiperidin-4-yl)methyl (S)-2-hydroxy-2-(3-(5-((4-((((R)-2-hydroxy-2-(8-hydroxy-2-oxo-1,2-dihydroquinolin-5-yl)ethyl)amino)methyl)-benzamido)methyl)pyrazin-2-yl)phenyl)-2-phenylacetate]
IC50 [1]: 0.3 to 3 nM
IC50 [2]: < 0.3 nM

COc1cc(C(=O)NCc2ccc(-c3cccc([C@](O)(C(=O)OCC4CCN(Cc5ccccc5)CC4)c4ccccc4)c3)nn2)ccc1CNC[C@H](O)c1ccc(O)c2[nH]c(=O)ccc12 [Compound 4C, (1-Benzylpiperidin-4-yl)methyl (S)-2-hydroxy-2-(3-(6-((4-((((R)-2-hydroxy-2-(8-hydroxy-2-oxo-1,2-dihydroquinolin-5-yl)ethyl)amino)methyl)-3-methoxybenzamido)methyl)pyridazin-3-yl)phenyl)-2-phenylacetate]
IC50 [1]: < 0.3 nM
IC50 [2]: < 0.3 nM

O=C(NCc1ccnc(-c2cccc([C@](O)(C(=O)OCC3CCN(Cc4ccccc4)CC3)c3ccccc3)c2)n1)c1ccc(CNC[C@H](O)c2ccc(O)c3[nH]c(=O)ccc23)cc1 [Compound 4D, (1-Benzylpiperidin-4-yl)methyl (S)-2-hydroxy-2-(3-(4-((4-((((R)-2-hydroxy-2-(8-hydroxy-2-oxo-1,2-dihydroquinolin-5-yl)ethyl)amino)methyl)-benzamido)methyl)pyrimidin-2-yl)phenyl)-2-phenylacetate]
IC50 [1]: 0.3 to 3 nM
IC50 [2]: 0.3 to 3 nM

COc1cc(C(=O)NCc2ncc(-c3cccc([C@](O)(C(=O)OCC4CCN(Cc5ccccc5)CC4)c4ccccc4)c3)cn2)ccc1CNC[C@H](O)c1ccc(O)c2[nH]c(=O)ccc12 [Compound 4E, (1-Benzylpiperidin-4-yl)methyl (S)-2-hydroxy-2-(3-(2-((4-((((R)-2-hydroxy-2-(8-hydroxy-2-oxo-1,2-dihydroquinolin-5-yl)ethyl)amino)methyl)-3-methoxybenzamido)methyl)pyrimidin-5-yl)phenyl)-2-phenylacetate]
IC50 [1]: 0.3 to 3 nM
IC50 [2]: 0.3 to 3 nM

COc1cc(C(=O)NCc2nn(C)cc2-c2cccc([C@](O)(C(=O)OCC3CCN(Cc4ccccc4)CC3)c3ccccc3)c2)ccc1CNC[C@H](O)c1ccc(O)c2[nH]c(=O)ccc12 [Compound 4F, (1-Benzylpiperidin-4-yl)methyl (S)-2-hydroxy-2-(3-(3-((4-((((R)-2-hydroxy-2-(8-hydroxy-2-oxo-1,2-dihydroquinolin-5-yl)ethyl)amino)methyl)-3-methoxybenzamido)methyl)-1-methyl-1H-pyrazol-4-yl)phenyl)-2-phenylacetate]
IC50 [1]: 0.3 to 3 nM
IC50 [2]: 0.3 to 3 nM

COc1cc(C(=O)NCc2cncc(-c3cccc([C@](O)(C(=O)OCC4CCN(Cc5ccccc5)CC4)c4ccccc4)c3)n2)ccc1CNC[C@H](O)c1ccc(O)c2[nH]c(=O)ccc12 [Compound 4G, (1-Benzylpiperidin-4-yl)methyl (S)-2-hydroxy-2-(3-(6-((4-((((R)-2-hydroxy-2-(8-hydroxy-2-oxo-1,2-dihydroquinolin-5-yl)ethyl)amino)methyl)-3-methoxybenzamido)methyl)pyrazin-2-yl)phenyl)-2-phenylacetate]
IC50 [1]: < 0.3 nM
IC50 [2]: 0.3 to 3 nM

COc1cc(C(=O)NCc2cnc(-c3cccc([C@](O)(C(=O)OCC4CCN(Cc5ccccc5)CC4)c4ccccc4)c3)cn2)ccc1CNC[C@H](O)c1ccc(O)c2[nH]c(=O)ccc12 [Compound 4H, (1-Benzylpiperidin-4-yl)methyl (S)-2-hydroxy-2-(3-(5-((4-((((R)-2-hydroxy-2-(8-hydroxy-2-oxo-1,2-dihydroquinolin-5-yl)ethyl)amino)methyl)-3-methoxybenzamido)methyl)pyrazin-2-yl)phenyl)-2-phenylacetate]
IC50 [1]: < 0.3 nM
IC50 [2]: 0.3 to 3 nM

O=C(NCc1cc(-c2cccc([C@](O)(C(=O)OCC3CCN(Cc4ccccc4)CC3)c3ccccc3)c2)cs1)c1ccc(CNC[C@H](O)c2ccc(O)c3[nH]c(=O)ccc23)cc1 [Compound 5, (1-Benzylpiperidin-4-yl)methyl (S)-2-hydroxy-2-(3-(5-((4-((((R)-2-hydroxy-2-(8-hydroxy-2-oxo-1,2-dihydroquinolin-5-yl)ethyl)amino)methyl)benzamido)methyl)-thiophen-3-yl)phenyl)-2-phenylacetate]
IC50 [1]: < 0.3 nM
IC50 [2]: 0.3 to 3 nM

O=C(NCc1csc(-c2cccc([C@](O)(C(=O)OCC3CCN(Cc4ccccc4)CC3)c3ccccc3)c2)c1)c1ccc(CNC[C@H](O)c2ccc(O)c3[nH]c(=O)ccc23)cc1 [Compound 5A, (1-Benzylpiperidin-4-yl)methyl (S)-2-hydroxy-2-(3-(4-((4-((((R)-2-hydroxy-2-(8-hydroxy-2-oxo-1,2-dihydroquinolin-5-yl)ethyl)amino)methyl)-benzamido)methyl)thiophen-2-yl)phenyl)-2-phenylacetate]
IC50 [1]: < 0.3 nM
IC50 [2]: 0.3 to 3 nM

O=C(NCc1cnc(-c2cccc([C@](O)(C(=O)OCC3CCN(Cc4ccccc4)CC3)c3ccccc3)c2)s1)c1ccc(CNC[C@H](O)c2ccc(O)c3[nH]c(=O)ccc23)cc1 [Compound 5B, (1-Benzylpiperidin-4-yl)methyl (S)-2-hydroxy-2-(3-(5-((4-((((R)-2-hydroxy-2-(8-hydroxy-2-oxo-1,2-dihydroquinolin-5-yl)ethyl)amino)methyl)-benzamido)methyl)thiazol-2-yl)phenyl)-2-phenylacetate]
IC50 [1]: < 0.3 nM
IC50 [2]: 0.3 to 3 nM

O=C(c1ccc(CNC[C@H](O)c2ccc(O)c3[nH]c(=O)ccc23)cc1)N1CCc2sc(-c3cccc([C@](O)(C(=O)OCC4CCN(Cc5ccccc5)CC4)c4ccccc4)c3)cc2C1 [Compound 5C, (1-Benzylpiperidin-4-yl)methyl (S)-2-hydroxy-2-(3-(5-(4-((((R)-2-hydroxy-2-(8-hydroxy-2-oxo-1,2-dihydroquinolin-5-yl)ethyl)amino)methyl)benzoyl)-4,5,6,7-tetrahydrothieno[3,2-c]pyridin-2-yl)phenyl)-2-phenylacetate]
IC50 [1]: < 0.3 nM
IC50 [2]: 0.3 to 3 nM

O=C(NCCc1ccc(-c2cccc([C@](O)(C(=O)OCC3CCN(Cc4ccccc4)CC3)c3ccccc3)c2)s1)c1ccc(CNC[C@H](O)c2ccc(O)c3[nH]c(=O)ccc23)cc1 [Compound 5D, (1-Benzylpiperidin-4-yl)methyl (S)-2-hydroxy-2-(3-(5-(2-(4-((((R)-2-hydroxy-2-(8-hydroxy-2-oxo-1,2-dihydroquinolin-5-yl)ethyl)amino)methyl)-benzamido)ethyl)thiophen-2-yl)phenyl)-2-phenylacetate]
IC50 [1]: < 0.3 nM
IC50 [2]: 0.3 to 3 nM

COc1cc(C(=O)NCc2nccnc2-c2cccc([C@](O)(C(=O)OCC3CCN(Cc4ccccc4)CC3)c3ccccc3)c2)ccc1CNC[C@H](O)c1ccc(O)c2[nH]c(=O)ccc12 [Compound 5E, (1-Benzylpiperidin-4-yl)methyl (S)-2-hydroxy-2-(3-(3-((4-((((R)-2-hydroxy-2-(8-hydroxy-2-oxo-1,2-dihydroquinolin-5-yl)ethyl)amino)methyl)-3-methoxybenzamido)methyl)pyrazin-2-yl)phenyl)-2-phenylacetate]
IC50 [1]: < 0.3 nM
IC50 [2]: 0.3 to 3 nM

O=C(c1ccnc(-c2cccc([C@](O)(C(=O)OCC3CCN(Cc4ccccc4)CC3)c3ccccc3)c2)c1)N1CCC(CNC[C@H](O)c2ccc(O)c3[nH]c(=O)ccc23)CC1 [Compound 6, (1-Benzylpiperidin-4-yl)methyl (S)-2-hydroxy-2-(3-(4-(4-((((R)-2-hydroxy-2-(8-hydroxy-2-oxo-1,2-dihydroquinolin-5-yl)ethyl)amino)methyl)piperidine-1-carbonyl)pyridin-2-yl)phenyl)-2-phenylacetate]
IC50 [1]: < 0.3 nM
IC50 [2]: 0.3 to 3 nM

O=C(c1cncc(-c2cccc([C@](O)(C(=O)OCC3CCN(Cc4ccccc4)CC3)c3ccccc3)c2)n1)N1CCC(CNC[C@H](O)c2ccc(O)c3[nH]c(=O)ccc23)CC1 [Compound 6A, (1-Benzylpiperidin-4-yl)methyl (S)-2-hydroxy-2-(3-(6-(4-((((R)-2-hydroxy-2-(8-hydroxy-2-oxo-1,2-dihydroquinolin-5-yl)ethyl)amino)methyl)piperidine-1-carbonyl)pyrazin-2-yl)phenyl)-2-phenylacetate]
IC50 [1]: 0.3 to 3 nM
IC50 [2]: 0.3 to 3 nM

O=C(c1cc(-c2cccc([C@](O)(C(=O)OCC3CCN(Cc4ccccc4)CC3)c3ccccc3)c2)ccn1)N1CCC(CNC[C@H](O)c2ccc(O)c3[nH]c(=O)ccc23)CC1 [Compound 6B, (1-Benzylpiperidin-4-yl)methyl (S)-2-hydroxy-2-(3-(2-(4-((((R)-2-hydroxy-2-(8-hydroxy-2-oxo-1,2-dihydroquinolin-5-yl)ethyl)amino)methyl)piperidine-1-carbonyl)pyridin-4-yl)phenyl)-2-phenylacetate]
IC50 [1]: < 0.3 nM
IC50 [2]: 0.3 to 3 nM

O=C(c1ccc(-c2cccc([C@](O)(C(=O)OCC3CCN(Cc4ccccc4)CC3)c3ccccc3)c2)cn1)N1CCC(CNC[C@H](O)c2ccc(O)c3[nH]c(=O)ccc23)CC1 [Compound 6C, (1-Benzylpiperidin-4-yl)methyl (S)-2-hydroxy-2-(3-(6-(4-((((R)-2-hydroxy-2-(8-hydroxy-2-oxo-1,2-dihydroquinolin-5-yl)ethyl)amino)methyl)piperidine-1-carbonyl)pyridin-3-yl)phenyl)-2-phenylacetate]
IC50 [1]: < 0.3 nM
IC50 [2]: < 0.3 nM
